Patent publication US9630958B2, “Triazine compounds” (Sphaera Pharma Pte. Ltd., priority 2012, dated 2017)

Legend:
[1] = target: T1, PI3 Kinase alpha (p110 alpha/p85 alpha) (Homo sapiens, UniProt P42336); assay: PI3K TR-FRET assay (Transcreener ADP2); assay type: biochemical; conditions: for inhibition at 1 µM: 1 uM compound, read-out: PI3K % Inhib@1 uM; for IC50: PI3K alpha, 1 μM ATP, 50 μM PIP2
T1 construct: purchased Invitrogen
Protocol: Enzymatic activity of PI3K alpha was measured using Time resolved Fluorescence resonance energy transfer (TR-FRET) assay. This assay utilizes ADP detection as a means to screen inhibitor potency of compounds. The Transcreener ADP2 TR-FRET Red Assay is a competitive immunoassay for ADP with a far-red, TR-FRET readout and it has been used for this purpose. The assay can be used for any enzyme class that produces ADP (Kinases, ATPases). It consists of ADP HiLyte647 Tracer, ADP^2 Antibody-Tb conjugate (800 nM), stop & detect buffer, 5 mM ATP, 5 mM ADP. The ADP HiLyte647 Tracer is bound to an ADP^2 Antibody-Tb conjugate. The excitation of the terbium complex in the UV range results in energy transfer to the tracer and emission at a higher wavelength after a time delay ADP produced by the target enzyme displaces the tracer which causes decrease in TR-FRET.
The reaction buffer used for the assay was 50 mM HEPES, pH 7.4.3 mM MgCl2, 0.05% CHAPS, 50 mM NaCl, 2 mM DTT, 1 mM EGTA. PI3 Kinase alpha (p110 alpha/p85 alpha) and PIP2 Substrate (diC8,) were procured from Invitrogen and Echelon respectively.
Kinase reactions were performed in 10 μl volume in Corning white 384 well plates. […] Reaction was initiated by the addition of substrate (PIP2) and ATP at final conc. of 50 μM and 1 μM ATP in the reaction respectively. Kinase reactions were allowed to proceed for 1 hour at room temperature before a 10 μL preparation of Transcreener ADP detection mix was added. Plate was incubated at room temperature for 1 hr. ADP-ATP standard curves were also prepared.
(§1) FRET signal was read in Envision Multilabel Reader with the following filters:
Excitation-330 nm and Emission 615 nm (donor) and 665 nm (acceptor). TR FRET Ratio (Fluorescence 665 nm/Fluorescence 615 nm) was converted to amount of product formed using the standard curve generated. Percentage inhibition was calculated and plotted against the concentration of inhibitor and data was fit to Non Linear Regression curve fit (sigmoidal dose response curve with variable slope-four parameters) using Graph pad prism 5 and IC50 was calculated for the compound.

Recombinant mTOR (FRAP1) = target: T2, Recombinant mTOR (FRAP1) (Homo sapiens, UniProt P42345); assay: mTOR in vitro kinase assay (TR-FRET, phosphorylation of GFP-4E-BP1); assay type: biochemical; conditions: for IC50: 8 μM ATP, 400 nM GFP-4E-BP1; for inhibition at 1 µM: 1 uM compound, read-out: mTOR % Inhib@1 uM
T2 construct: purchased Invitrogen
T2 sequence (P42345 1360-2549 limits assumed): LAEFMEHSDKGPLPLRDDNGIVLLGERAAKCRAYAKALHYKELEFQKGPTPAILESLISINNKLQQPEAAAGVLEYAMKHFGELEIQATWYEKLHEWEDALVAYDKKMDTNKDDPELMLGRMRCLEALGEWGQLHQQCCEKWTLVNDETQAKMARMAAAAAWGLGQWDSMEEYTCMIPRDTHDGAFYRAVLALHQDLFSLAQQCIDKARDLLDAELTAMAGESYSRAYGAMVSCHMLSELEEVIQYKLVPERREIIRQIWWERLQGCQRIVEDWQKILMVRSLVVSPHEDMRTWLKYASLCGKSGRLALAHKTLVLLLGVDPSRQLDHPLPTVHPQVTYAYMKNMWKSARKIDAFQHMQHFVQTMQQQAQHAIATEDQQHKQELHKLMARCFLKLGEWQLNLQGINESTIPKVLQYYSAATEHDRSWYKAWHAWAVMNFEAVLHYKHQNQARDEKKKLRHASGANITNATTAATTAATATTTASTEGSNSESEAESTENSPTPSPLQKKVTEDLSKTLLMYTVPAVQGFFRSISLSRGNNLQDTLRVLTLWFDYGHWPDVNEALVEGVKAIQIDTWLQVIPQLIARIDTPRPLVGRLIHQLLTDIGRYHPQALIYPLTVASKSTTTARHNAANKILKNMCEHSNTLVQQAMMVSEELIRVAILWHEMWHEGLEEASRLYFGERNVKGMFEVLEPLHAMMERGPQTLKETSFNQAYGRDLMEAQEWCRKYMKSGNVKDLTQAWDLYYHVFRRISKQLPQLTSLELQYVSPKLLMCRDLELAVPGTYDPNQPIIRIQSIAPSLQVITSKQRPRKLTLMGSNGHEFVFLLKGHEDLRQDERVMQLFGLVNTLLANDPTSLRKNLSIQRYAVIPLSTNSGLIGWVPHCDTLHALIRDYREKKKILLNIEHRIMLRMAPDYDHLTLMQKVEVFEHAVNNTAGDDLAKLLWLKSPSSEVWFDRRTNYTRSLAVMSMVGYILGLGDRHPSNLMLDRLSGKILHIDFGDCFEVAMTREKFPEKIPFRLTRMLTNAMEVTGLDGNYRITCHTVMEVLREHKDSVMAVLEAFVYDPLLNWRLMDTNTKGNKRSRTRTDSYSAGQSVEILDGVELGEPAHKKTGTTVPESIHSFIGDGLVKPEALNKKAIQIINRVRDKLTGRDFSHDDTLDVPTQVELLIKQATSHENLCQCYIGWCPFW
Protocol: Compounds were evaluated for mTOR activity using an in vitro kinase assay.
mTOR activity is measured in vitro by determining the level of phosphorylation of the protein substrate 4EBP-1. The phosphorylation of GFP-4E-BP1 at threonine residue is recognized by Ab Tb-Anti-p4EBP1, which results in time resolved fluorescence energy transfer (TR-FRET) between GFP and Terbium in the Ab-Protein complex.
Recombinant mTOR (FRAP1), Kinase reaction buffer, GFP-4E-BP1 and LanthaScreen Tb-anti-4E-BP1 (pThr46), TR FRET dilution buffer, Kinase Quench Buffer were obtained from Invitrogen.
Kinase reactions were performed in 10 μl volume in Corning white 384 well plates. […] The reaction was initiated by the addition of substrate (GFP-4E-BP1) and ATP at a final conc. of 400 nM and 8 μM ATP in the reaction respectively. The kinase reaction was allowed to proceed for 1 hour at room temperature before a 10 μL preparation of kinase quench buffer and Tb-labeled Antibody in TR-FRET dilution buffer was added. The final concentration of the antibody in the assay well is 2 nM and the final concentration of EDTA is 10 mM. The plate was incubated at room temperature for 1 h.
as §1
Excitation-330 nm and Emission 486 nm (donor) and 520 nm (acceptor).
TR FRET Ratio (Fluorescence 520 nm/Fluorescence 486 nm) was plotted against the concentration of inhibitor and data was fit to Non Linear Regression curve fit (sigmoidal dose response curve with variable slope-four parameters) using Graph Pad Prism 5.

T1 sequence (P42336 whole entry): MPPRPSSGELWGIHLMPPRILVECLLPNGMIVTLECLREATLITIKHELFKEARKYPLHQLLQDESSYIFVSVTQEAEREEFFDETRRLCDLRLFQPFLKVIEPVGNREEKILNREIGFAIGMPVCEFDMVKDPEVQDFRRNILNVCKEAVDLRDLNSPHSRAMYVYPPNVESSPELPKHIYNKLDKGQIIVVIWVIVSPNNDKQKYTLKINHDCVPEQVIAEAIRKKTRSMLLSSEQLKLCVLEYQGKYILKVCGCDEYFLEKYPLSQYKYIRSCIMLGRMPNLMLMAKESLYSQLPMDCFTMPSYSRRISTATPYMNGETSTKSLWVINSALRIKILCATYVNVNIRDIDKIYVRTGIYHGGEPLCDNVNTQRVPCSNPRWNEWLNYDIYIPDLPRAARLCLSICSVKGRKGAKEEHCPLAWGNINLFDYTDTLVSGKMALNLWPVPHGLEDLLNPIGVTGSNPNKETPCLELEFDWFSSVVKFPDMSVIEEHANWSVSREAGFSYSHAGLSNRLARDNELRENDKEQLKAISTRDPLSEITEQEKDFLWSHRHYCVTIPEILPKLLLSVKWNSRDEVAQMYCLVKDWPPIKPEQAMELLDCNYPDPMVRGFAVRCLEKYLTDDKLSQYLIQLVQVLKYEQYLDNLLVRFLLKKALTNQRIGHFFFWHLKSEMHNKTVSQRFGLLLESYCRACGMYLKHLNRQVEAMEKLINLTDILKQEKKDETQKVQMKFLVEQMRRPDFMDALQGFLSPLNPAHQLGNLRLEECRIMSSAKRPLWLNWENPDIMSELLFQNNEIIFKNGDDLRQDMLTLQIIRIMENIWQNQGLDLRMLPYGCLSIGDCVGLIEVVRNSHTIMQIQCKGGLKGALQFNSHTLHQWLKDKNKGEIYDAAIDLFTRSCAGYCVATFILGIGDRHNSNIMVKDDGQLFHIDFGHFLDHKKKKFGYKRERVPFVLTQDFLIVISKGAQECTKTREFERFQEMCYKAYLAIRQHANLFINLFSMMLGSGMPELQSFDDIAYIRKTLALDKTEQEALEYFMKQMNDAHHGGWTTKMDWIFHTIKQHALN
T1 sequence (P27986 whole entry partner): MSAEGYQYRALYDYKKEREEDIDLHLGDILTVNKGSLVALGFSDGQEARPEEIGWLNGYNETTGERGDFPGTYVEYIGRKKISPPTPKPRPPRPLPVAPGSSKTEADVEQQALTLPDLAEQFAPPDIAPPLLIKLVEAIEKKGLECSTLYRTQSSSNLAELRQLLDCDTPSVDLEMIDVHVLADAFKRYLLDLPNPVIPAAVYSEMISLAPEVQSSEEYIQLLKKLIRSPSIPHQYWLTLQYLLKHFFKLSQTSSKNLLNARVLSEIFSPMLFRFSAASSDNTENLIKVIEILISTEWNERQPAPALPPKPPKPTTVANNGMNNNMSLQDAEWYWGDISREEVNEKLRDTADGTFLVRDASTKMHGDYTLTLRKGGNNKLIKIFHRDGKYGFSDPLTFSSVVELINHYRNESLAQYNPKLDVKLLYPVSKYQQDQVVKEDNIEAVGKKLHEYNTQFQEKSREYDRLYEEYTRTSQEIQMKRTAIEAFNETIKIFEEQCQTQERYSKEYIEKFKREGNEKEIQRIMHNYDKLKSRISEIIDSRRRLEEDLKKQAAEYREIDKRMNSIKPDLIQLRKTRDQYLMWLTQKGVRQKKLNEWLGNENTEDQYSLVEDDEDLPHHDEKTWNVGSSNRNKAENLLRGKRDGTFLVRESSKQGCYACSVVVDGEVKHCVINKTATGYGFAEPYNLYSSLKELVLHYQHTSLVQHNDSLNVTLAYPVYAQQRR

Row | Structure (SMILES) | inhibition at 1 µM [1] [%] | IC50 (Recombinant mTOR (FRAP1)) [nM] | IC50 [1] [nM] | inhibition at 1 µM (Recombinant mTOR (FRAP1)) [%]
1 | C[C@H]1CN(c2nc(Oc3ccc(C(=O)N(C)C)cc3F)nc(-c3ccc4[nH]ncc4c3)n2)[C@@H](C)CO1 [Compound 10063, 4-((4-((25,3S)-2,5-dimethylmorpholino)-6-(1H-indazol-5-yl)-1,3,5-triazin-2-yl)oxy)-3-fluoro-N,N-dimethylbenzamide] | < 50 | < 1000 | – | –
2 | C[C@@H]1CN(c2nc(Oc3ccc(C(=O)N(C)C)cc3F)nc(-c3ccc4[nH]ncc4c3)n2)[C@@H](C)CO1 [Compound 10064, 4-((4-((2R,3S)-2,5-dimethylmorpholino)-6-(1H-indazol-5-yl)-1,3,5-triazin-2-yl)oxy)3-fluoro-N,N-dimethylbenzamide] | < 50 | < 1000 | – | –
3 | CN(C)C(=O)c1ccc(Oc2nc(-c3cnc(N)cc3C(F)(F)F)nc(N3CCOCC3)n2)c(F)c1 [Compound 10065, 4-((4-(6-Amino-4-(trifluoromethyl)pyridine-3-yl)-6-morpholino-1,3,5-triazin-2-yl)oxy)-3-fluoro-N,N-dimethylbenzamide] | – | < 1000 | < 1000 | –
4 | C[C@H]1COCCN1c1nc(Oc2ccc(C(=O)N(C)C)cc2)nc(-c2cnc(N)cc2C(F)(F)F)n1 [Compound 10066, (S)-4-((4-(6-Amino-4-(trifluoromethyl)pyridine-3-yl)-6-(3-methylmorpholino)-1,3,5-triazin-2-yl)oxy)-N,N-dimethylbenzamide] | – | < 1000 | < 1000 | –
5 | C[C@H]1COCCN1c1nc(Oc2ccc(C(=O)N(C)C)cc2F)nc(-c2cnc(N)cc2C(F)(F)F)n1 [Compound 10067, (S)-4-((4-(6-Amino-4-(trifluoromethyl)pyridine-3-yl)-6-(3-methylmorpholino)-1,3,5-triazin-2-yl)oxy)-3-fluoro-N,N-dimethylbenzamide] | – | < 1000 | < 1000 | –
6 | C[C@@H]1CN(c2nc(Oc3ccc(C(=O)N(C)C)cc3F)nc(-c3cnc(N)s3)n2)C[C@H](C)O1 [Compound 10069] | – | < 1000 | > 1000 | –
7 | CN(C)C(=O)c1ccc(Oc2nc(-c3cnc(N)s3)nc(N3CCNC(=O)CC3)n2)cc1 [Compound 10071, 4-((4-(2-Aminothiazol-5-yl)-6-(5-oxo-1,4-diazepan-1-yl)-1,3,5-triazin-2-yl)oxy)-N,N-dimethylbenzamide] | < 50 | – | – | < 50
8 | CN(C)C(=O)c1ccc(Oc2nc(-c3cnc(N)s3)nc(N3CCNC(=O)C3)n2)cc1 [Compound 10072, 4-((4-(2-Aminothiazol-5-yl)-6-(3-oxopiperazin-1-yl)-1,3,5-triazin-2-yl)oxy)-N,N-dimethylbenzamide] | < 50 | – | – | < 50
9 | C[C@@H]1CN(c2nc(Oc3ccc(C(=O)N(C)C)cc3)nc(-c3cnc(N)s3)n2)CCO1 [Compound 10073, (R)-4-((4-(2-Aminothiazol-5-yl)-6-(2-methylmorpholino)-1,3,5-triazin-2-yl)oxy)-N,N-dimethylbenzamide] | > 50 | < 1000 | < 1000 | > 50
10 | CN(C)C(=O)c1ccc(Oc2nc(-c3cnc(N)s3)nc(N3CC4CCC(C3)O4)n2)cc1 [Compound 10075, 4-((4-(2-Aminothiazol-5-yl)-6-(8-oxa-3-azabicyclo[3.2.1]octan-3-yl)-1,3,5-triazin-2-yl)oxy)-N,N-dimethylbenzamide] | < 50 | < 1000 | > 1000 | > 50
11 | C[C@@H]1CN(c2nc(Oc3ccc(C(=O)N(C)C)cc3)nc(-c3cnc(N)s3)n2)[C@@H](C)CO1 [Compound 10076, 4-((4-(2-Aminothiazol-5-yl)-6-((2R,5S)-2,5-dimethylmorpholino)-1,3,5-triazin-2-yl)oxy)-N,N-dimethylbenzamide] | < 50 | < 1000 | > 1000 | > 50
12 | C[C@H]1CN(c2nc(Oc3ccc(C(=O)N(C)C)cc3)nc(-c3cnc(N)s3)n2)[C@@H](C)CO1 [Compound 10077, 4-((4-(2-Aminothiazol-5-yl)-6-((2S,5S)-2,5-dimethylmorpholino)-1,3,5-triazin-2-yl)oxy)-N,N-dimethylbenzamide] | > 50 | < 1000 | < 1000 | –
13 | C[C@H]1COC[C@H](C)N1c1nc(Oc2ccc(C(=O)N(C)C)cc2)nc(-c2cnc(N)s2)n1 [Compound 10078, 4-((4-(2-Aminothiazol-5-yl)-6-((3S,5S)-3,5-dimethylmorpholino)-1,3,5-triazin-2-yl)oxy)-N,N-dimethybenzamide] | > 50 | < 1000 | < 1000 | > 50
14 | C[C@@H]1COC[C@H](C)N1c1nc(Oc2ccc(C(=O)N(C)C)cc2)nc(-c2cnc(N)s2)n1 [Compound 10079, 4-((4-(2-Aminothiazol-5-yl)-6-((3S,5R)-3,5-dimethylmorpholino)-1,3,5-triazin-2-yl)oxy)-N,N-dimethybenzamide] | < 50 | < 1000 | > 1000 | –
15 | CC[C@H]1COCCN1c1nc(Oc2ccc(C(=O)N(C)C)cc2)nc(-c2cnc(N)s2)n1 [Compound 10081, (S)-4-((4-(2-Aminothiazol-5-yl)-6-(3-ethylmorpholino)-1,3,5-triazin-2-yl)oxy)-N,N-dimethylbenzamide] | > 50 | < 1000 | < 1000 | > 50
16 | CC[C@@H]1COCCN1c1nc(Oc2ccc(C(=O)N(C)C)cc2)nc(-c2cnc(N)s2)n1 [Compound 10082, (R)-4-((4-(2-Aminothiazol-5-yl)-6-(3-ethylmorpholino)-1,3,5-triazin-2-yl)oxy)-N,N-dimethylbenzamide] | < 50 | – | – | < 50
17 | CNC(=O)Nc1ncc(-c2nc(Oc3ccc(C(=O)N(C)C)cc3)nc(N3CCOC[C@@H]3C)n2)s1 [Compound 10091, (S)-N,N-dimethyl-4-((4-(3-methylmorpholino)-6-(2-(3-methylureido)thiazol-5-yl)-1,3,5-triazin-2-yl)oxy)benzamide] | – | < 1000 | < 1000 | > 50
18 | C[C@H]1COCCN1c1nc(Oc2ccc(C(=O)N(C)C)cc2)nc(-c2cnc(NC(=O)Nc3cccnc3)s2)n1 [Compound 10092] | < 50 | < 1000 | < 1000 | –
19 | C[C@H]1COCCN1c1nc(Oc2ccc(C(=O)N(C)C)cc2)nc(-c2cnc(NC(=O)NC3CC3)s2)n1 [Compound 10093] | > 50 | < 1000 | < 1000 | –
20 | CN(C)C(=O)c1ccc(Oc2nc(-c3ccc(N)nc3)nc(N3CC4CCC(C3)O4)n2)c(F)c1 [Compound 10095] | < 50 | < 1000 | > 1000 | –
21 | C[C@H]1COCCN1c1nc(Oc2ccc(C(=O)N(C)C)cc2)nc(-c2ccc(N)nc2)n1 [Compound 10096, (S)-4-((4-(6-Aminopyridin-3-yl)-6-(3-methylmorpholino)-1,3,5-triazin-2-yl)oxy)-N,N-dimethylbenzamide] | – | < 1000 | < 1000 | > 50
22 | C[C@H]1CN(c2nc(Oc3ccc(C(=O)N(C)C)cc3F)nc(-c3ccc(N)nc3)n2)[C@@H](C)CO1 [Compound 10097, 4-((4-(6-Aminopyridin-3-yl)-6-((2S,5S)-2,5-dimethylmorpholino)-1,3,5-triazin-2-yl)oxy)-3-fluoro-N,N-dimethylbenzamide] | > 50 | < 1000 | < 1000 | –
